Patent publication US9624170B2, “4-(piperrazin-1-yl)-pyrrolidin-2-one compounds as monoacylglycerol lipase (MAGL) inhibitors” (TAKEDA PHARMACEUTICAL COMPANY LIMITED, priority 2013, dated 2017)

Target: T1, human MAGL (His-hMAGL) (Homo sapiens, UniProt Q99685)
T1 construct: made in house; host or cells: Escherichia coli BL21(DE3)
T1 sequence (Q99685 1-303): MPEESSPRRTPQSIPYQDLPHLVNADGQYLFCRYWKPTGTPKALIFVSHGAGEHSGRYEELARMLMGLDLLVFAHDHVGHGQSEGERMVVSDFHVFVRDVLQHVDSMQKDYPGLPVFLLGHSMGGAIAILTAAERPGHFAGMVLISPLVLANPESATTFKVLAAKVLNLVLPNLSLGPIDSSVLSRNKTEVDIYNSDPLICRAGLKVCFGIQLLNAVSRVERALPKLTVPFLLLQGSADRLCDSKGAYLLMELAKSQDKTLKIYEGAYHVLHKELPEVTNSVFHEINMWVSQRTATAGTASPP
Experiment: Measurement of MAGL inhibitory activity by mass spectrometry
Assay type: biochemical
Conditions: 10 μM test compound; substrate 2-arachidonylglycerol, arachidonic acid by RapidFire-mass spectrometry
Procedure: Thereafter, to each well was added 150 μM 2-arachidonylglycerol (Tocris Bioscience) by 5 μL, and the mixture was incubated at room temperature for 10 min. Then, 2% formic acid (Wako Pure Chemical Industries, Ltd.) was added by 10 μL to discontinue the reaction. Furthermore, acetonitrile (50 μL) containing 3 μM arachidonic acid-d8 (Cayman Chemical Company) was added and the mixture was stirred. The amount of arachidonic acid in the obtained enzyme reaction mixture was calculated by measuring by RapidFire-mass spectrometry and correcting by the amount of arachidonic acid-d8. High Throughput online solid phase extraction was performed using RapidFire 300TM system (Agilent Technologies, Inc.). […] The injection needle was washed with ultrapure water (500 millisecond) and acetonitrile (500 millisecond) to minimize carry-over. […] The RapidFire300 system was controlled by RapidFire UI software version 3.6 (Agilent Technologies, Inc.). The mass spectrometry of the resultant product was performed using […] triple quadrupole mass spectrometer (AB SCIEX) equipped with an electrospray ion sauce (Turbolon SprayTM) in a negative selected reaction monitoring (SRM) mode. The conditions of SRM are shown below. The parameters of the instrument were optimized as follows: capillary temperature 600° C., ion spray voltage -4.5 kV, collision gas 8, curtain gas 15 psi, ion source gas 1 60 psi, ion source gas 2 60 psi. The mass spectrometer was controlled by AnalystTM software version 1.5.1 (AB SCIEX). The peak area integration was analyzed using RapidFire integrator software version 3.6 (Agilent Technologies, Inc.). MAGL inhibitory rate (%) was calculated according to the following calculation formula.

SMILES	inhibition at 10 µM [%]
Cc1ccc(-c2cccc(N3CC(N4CCN(C(=O)c5nccs5)CC4)CC3=O)c2)cc1 (stereo not shown) [Example 90, 1-(4′-methylbiphenyl-3-yl)-4-(4-(1,3-thiazol-2-ylcarbonyl)piperazin-1-yl)pyrrolidin-2-one]	102
Cc1cccc(-c2cccc(N3CC(N4CCN(C(=O)c5nccs5)CC4)CC3=O)c2)c1 (stereo not shown) [Example 91, 1-(3′-methylbiphenyl-3-yl)-4-(4-(1,3-thiazol-2-ylcarbonyl)piperazin-1-yl)pyrrolidin-2-one]	102
O=C(c1nccs1)N1CCN(C2CC(=O)N(c3cccc(-c4cccs4)c3)C2)CC1 (stereo not shown) [Example 93, 4-(4-(1,3-thiazol-2-ylcarbonyl)piperazin-1-yl)-1-(3-(2-thienyl)phenyl)pyrrolidin-2-one]	101
O=C(c1nccs1)N1CCN(C2CC(=O)N(c3cccc(-c4ccsc4)c3)C2)CC1 (stereo not shown) [Example 94, 4-(4-(1,3-thiazol-2-ylcarbonyl)piperazin-1-yl)-1-(3-(3-thienyl)phenyl)pyrrolidin-2-one]	99
CC(=O)Nc1cccc(-c2cccc(N3CC(N4CCN(C(=O)c5nccs5)CC4)CC3=O)c2)c1 (stereo not shown) [Example 95, N-(3′-(2-oxo-4-(4-(1,3-thiazol-2-ylcarbonyl)piperazin-1-yl)pyrrolidin-1-yl)biphenyl-3-yl)acetarnide]	99
O=C(c1nccs1)N1CCN(C2CC(=O)N(c3cccc(-c4ccoc4)c3)C2)CC1 (stereo not shown) [Example 96, 1-(3-(3-furyl)phenyl)-4-(4-(1,3-thiazol-2-ylcarbonyl)piperazin-1-yl)pyrrolidin-2-one]	99
CC(=O)Nc1ccc(-c2cccc(N3CC(N4CCN(C(=O)c5nccs5)CC4)CC3=O)c2)cc1 (stereo not shown) [Example 97, N-(3′-(2-oxo-4-(4-(1,3-thiazol-2-ylcarbonyl)piperazin-1-yl)pyrrolidin-1-yl)biphenyl-4-yl)acetarnide]	97
NC(=O)c1cccc(-c2cccc(N3CC(N4CCN(C(=O)c5nccs5)CC4)CC3=O)c2)c1 (stereo not shown) [Example 98, 3′-(2-oxo-4-(4-(1,3-thiazol-2-ylcarbonyl)piperazin-1-yl)pyrrolidin-1-yl)biphenyl-3-carboxamide]	100
O=C(c1nccs1)N1CCN(C2CC(=O)N(c3cccc(Cc4ccccc4)c3)C2)CC1 (stereo not shown) [Example 99, 1-(3-benzylphenyl)-4-(4-(1,3-thiazol-2-ylcarbonyl)piperazin-1-yl)pyrrolidin-2-one]	102
CS(=O)(=O)Nc1cccc(-c2cccc(N3CC(N4CCN(C(=O)c5nccs5)CC4)CC3=O)c2)c1 (stereo not shown) [Example 100, N-(3′-(2-oxo-4-(4-(1,3-thiazol-2-ylcarbonyl)piperazin-1-yl)pyrrolidin-1-yl)biphenyl-3-yl)methanesulfonamide]	101
Cn1nccc1-c1cccc(N2CC(N3CCN(C(=O)c4nccs4)CC3)CC2=O)c1 (stereo not shown) [Example 101, 1-(3-(1-methyl-1H-pyrazol-5-yl)phenyl)-4-(4-(1,3-thiazol-2-ylcarbonyl)piperazin-1-yl)pyrrolidin-2-one]	99
NS(=O)(=O)c1ccc(-c2cccc(N3CC(N4CCN(C(=O)c5nccs5)CC4)CC3=O)c2)cc1 (stereo not shown) [Example 102, 3′-(2-oxo-4-(4-(1,3-thiazol-2-ylcarbonyl)piperazin-1-yl)pyrrolidin-1-yl)biphenyl-4-sulfonamide]	96
NS(=O)(=O)c1cccc(-c2cccc(N3CC(N4CCN(C(=O)c5nccs5)CC4)CC3=O)c2)c1 (stereo not shown) [Example 103, 3′-(2-oxo-4-(4-(1,3-thiazol-2-ylcarbonyl)piperazin-1-yl)pyrrolidin-1-yl)biphenyl-3-sulfonamide]	100
CNC(=O)c1ccc(-c2cccc(N3CC(N4CCN(C(=O)c5nccs5)CC4)CC3=O)c2)cc1 (stereo not shown) [Example 104, N-methyl-3′-(2-oxo-4-(4-(1,3-thiazol-2-ylcarbonyl)piperazin-1-yl)pyrrolidin-1-yl)biphenyl-4-carboxamide]	95
O=C1Cc2cc(-c3cccc(N4CC(N5CCN(C(=O)c6nccs6)CC5)CC4=O)c3)ccc2N1 (stereo not shown) [Example 105, 5-(3-(2-oxo-4-(4-(1,3-thiazol-2-ylcarbonyl)piperazin-1-yl)pyrrolidin-1-yl)phenyl)-1,3-dihydro-2H-indol-2-one]	101
O=C(c1nccs1)N1CCN(C2CC(=O)N(c3cccc(-c4cnn5ccccc45)c3)C2)CC1 (stereo not shown) [Example 106, 1-(3-(pyrazolo[1,5-a]pyridin-3-yl)phenyl)-4-(4-(1,3-thiazol-2-ylcarbonyl)piperazin-1-yl)pyrrolidin-2-one]	99
O=C(c1nccs1)N1CCN(C2CC(=O)N(c3ccc4c(ccn4-c4cc(C(F)(F)F)ccn4)c3)C2)CC1 (stereo not shown) [Example 108, 4-(4-(1,3-thiazol-2-ylcarbonyl)piperazin-1-yl)-1-(1-(4-(trifluoromethyl)pyridin-2-yl)-1H-indol-5-yl)pyrrolidin-2-one]	97
O=C(c1nccs1)N1CCN(C2CC(=O)N(c3ccc4c(ccn4-c4ccnc(C(F)(F)F)c4)c3)C2)CC1 (stereo not shown) [Example 109, 4-(4-(1,3-Thiazol-2-ylcarbonyl)piperazin-1-yl)-1-(1-(2-(trifluoromethyl)pyridin-4-yl)-1H-indol-5-yl)pyrrolidin-2-one]	100
CS(=O)(=O)Nc1ccc(-c2cccc(N3CC(N4CCN(C(=O)c5nccs5)CC4)CC3=O)c2)cc1 (stereo not shown) [Example 110, N-(3′-(2-oxo-4-(4-(1,3-thiazol-2-ylcarbonyl)piperazin-1-yl)pyrrolidin-1-yl)biphenyl-4-yl)methanesulfonamide]	99
O=C(c1nccs1)N1CCN(C2CC(=O)N(c3ccc4c(ccn4-c4ccc(C(F)(F)F)nc4)c3)C2)CC1 (stereo not shown) [Example 111, 4-(4-(1,3-thiazol-2-ylcarbonyl)piperazin-1-yl)-1-(1-(6-(trifluoromethyl)pyridin-3-yl)-1H-indol-5-yl)pyrrolidin-2-one]	99
CNS(=O)(=O)c1ccc(-c2cccc(N3CC(N4CCN(C(=O)c5nccs5)CC4)CC3=O)c2)cc1 (stereo not shown) [Example 112, N-methyl-3′-(2-oxo-4-(4-(1,3-thiazol-2-ylcarbonyl)piperazin-1-yl)pyrrolidin-1-yl)biphenyl-4-sulfonamide]	6
O=C(c1nccs1)N1CCN(C2CC(=O)N(c3ccc4[nH]ccc4c3)C2)CC1 (stereo not shown) [Example 113, 1-(1H-indol-5-yl)-4-(4-(1,3-thiazol-2-ylcarbonyl)piperazin-1-yl)pyrrolidin-2-one]	80
O=C(c1nccs1)N1CCN(C2CC(=O)N(c3ccc4c(cnn4Cc4ccc(F)cc4)c3)C2)CC1 (stereo not shown) [Example 114, 1-(1-(4-Fluorobenzyl)-1H-indazol-5-yl)-4-(4-(1,3-thiazol-2-ylcarbonyl)piperazin-1-yl)pyrrolidin-2-one]	98
O=C(c1nccs1)N1CCN(C2CC(=O)N(c3cccc(NC4CCCCC4)c3)C2)CC1 (stereo not shown) [Example 115, 1-(3-(cyclohexylamino)phenyl)-4-(4-(1,3-thiazol-2-ylcarbonyl)piperazin-1-yl)pyrrolidin-2-one]	97
CC(=O)Nc1ccc(Nc2cccc(N3CC(N4CCN(C(=O)c5nccs5)CC4)CC3=O)c2)cc1 (stereo not shown) [Example 116, N-(4-((3-(2-oxo-4-(4-(1,3-thiazol-2-ylcarbonyl)piperazin-1-yl)pyrrolidin-1-yl)phenyl)amino)phenyl)acetamide]	99
